The values below come from US20160207930A1 (LEO PHARMA A/S, priority 2013, published 2016).

The target in series [1] is T1, NK1 Receptor (Homo sapiens, UniProt P25103).
T1 construct: Measurement of NK1 Receptor Mediated Intracellular [Ca^2+]; Mobilization in U251 MG Cells Using FLIPR; endogenous in cells; host or cells: U251 MG cells
Description: NK1 receptor mediated intracellular [Ca2+] mobilization in U251 MG cells using FLIPR. It counts as cell-based. Conditions: antagonism of Substance P (EC80), Fluo-4, read-out: NK1R mediated intracellular [Ca^2+] mobilization IC 50. The protocol: Measurement of NK1 Receptor Mediated Intracellular [Ca^2+] Mobilization in U251 MG Cells Using FLIPR
U251 MG cells were seeded into black walled clear-bottom 384-well plates (Greiner Bio-One GmbH, Frickenhausen, Germany) at a density of 15,000 cells/well in 50 μl culture medium and cultured overnight in a 37° C. 5% CO2 incubator. The cells were then loaded with the calcium sensitive dye Fluo-4 (Invitrogen) at 1 μM in buffer, containing 0.04% Pluronic F-127 (Sigma-Aldrich), and 2.5 mM probenecid (Sigma-Aldrich) for 60 min in a humidified atmosphere of 5% CO2. Thereafter, cells were washed three times in washing buffer containing 20 mM HEPES and 2.5 mM probenecid pH 7.3. Serial dilutions of test compounds in assay buffer containing 2% dimethyl sulfoxide (final concentration in the cell plate is 0.5% DMSO) and/or agonist were then automatically pipetted into each test well, and the peak fluorescence intensity was recorded (lex, 488 nm; lem, 540 nm) by the FLIPR instrument (Molecular Devices) for approximately 5 min. To measure antagonist potency, cell plates were first incubated with the test compound and intracellular fluorescence recorded for 5 minutes to check a potential agonist effect of the test compound. Cell plates were quickly removed from the FLIPR instrument and incubated for additional 10 minutes at 37° C. before being moved back to the FLIPR instrument for Substance P (EC80) addition. The response was measured as the peak relative fluorescence change after agonist addition.
Compound relative %-effect was normalized to the maximal response evoked by 100 nM Aprepitant in presence of the EC80 of Substance P and the antagonist potency determined by non-linear regression using GraphPad Prism (version 5) or the four-parameter logistic model in XLfit (IDBS, Guilford, UK) for Microsoft Excel (Microsoft, Redmond, Wash.). The IC50 value is defined as the molar concentration of a test compound that produces a response midway between the fitted top and the fitted bottom. pIC50=−log IC50
Formula is listed as follows:
Fit (% Effect calculated)=(A+((B−A)/(1+((C/X)̂D)))) • A: bottom value • B: top value • C: test compound concentration • X: Relative IC50 • D: Hill slope coefficient
Ref: Sullivan E, Tucker E M, and Dale I L. Measurement of [Ca^2+] using the Fluorometric Imaging Plate Reader (FLIPR). Methods Mol Biol 114:125-133, 1999.
Compounds of the present invention were tested according to example 100.

Series [2] in a line: Hepatic intrinsic clearance following incubation in human liver microsomes. It counts as in vitro ADME. Conditions: 0.5 μM test compound, NADPH, 0-30 min, scaled to g liver. The protocol: Hepatic Extraction Ratio from Hepatic Intrinsic Clearance Following Incubation in Human Liver Microsomes
The general procedure consists of an automated incubation system and LC-MS/MS analysis with human liver microsomes. Human liver microsomes are thawed rapidly in a waterbath at 37° C. and kept on ice until use. The human liver microsomes are diluted with 50 mM potassium phosphate buffer pH 7.4 to a protein concentration of 0.55 mg/mL. Test compounds and positive controls (Verapamil and Dextromethorphan, positive controls for CYP3A4 for CYP2D6 isoforms, respectively) are dissolved in methanol (or other appropriate solvent, if necessary) in order to obtain a 5 mM solution which is further diluted to the concentration of 50 μM. The stock solutions are prepared immediately before the test.
5 μL of 50 μM test compounds and controls are added to 445 μL-of the 0.55 mg/mL microsomes solution and the incubation mixture are pre-warmed at 37° C. for 5 minutes. The incubation reactions are initiated by adding 50 μL of pre-warmed NADPH regenerating system to the incubation mixtures. 50 μL-aliquots will be taken from the incubation mixtures at: 0, 3, 6, 9, 15 and 30 minutes and the reactions are stopped by adding 100 μL of ACN containing Rolipram, used as generic Internal Standard (IS). Samples are then diluted with 120 μL of Milli-Q water and centrifuged at 3000 rpm for 10 minutes, prior the LC-MS/MS analysis.
The integrated peak areas for test compounds at the selected time points are divided by the respective peak areas of the IS and the percent of parent remaining is calculated by normalizing the peak area ratio of parent to IS at 0 min. Observed rate constant (kobs) for parent degradation is calculated by determining the slope of the line of the graph of the natural log of percentage parent remaining versus time of incubation. From the rate of depletion (min−1) and volume of the incubation (mL), clearance is estimated. This is scaled for the protein in the incubation relative to that in the intact liver, for all species (mL/min/g liver).
Values for the Human in vitro Clint are expressed as mL/min/g liver.
Assuming a liver weight of 25.7 g/kg and a liver blood flow of 20.7 mL/min/kg, the hepatic extraction ratio, Eh, can be derived from the Human in vitro Clint:
E.g. a Human in vitro Clint of 2.4 mL/min/g liver corresponds to a hepatic extraction ratio of 75%.
Some compounds of the present invention were tested according to example 101.
For orientation: Microsomes from liver hold many membrane-bound enzymes, among them those of drug oxidation.

T1 sequence (P25103 whole entry): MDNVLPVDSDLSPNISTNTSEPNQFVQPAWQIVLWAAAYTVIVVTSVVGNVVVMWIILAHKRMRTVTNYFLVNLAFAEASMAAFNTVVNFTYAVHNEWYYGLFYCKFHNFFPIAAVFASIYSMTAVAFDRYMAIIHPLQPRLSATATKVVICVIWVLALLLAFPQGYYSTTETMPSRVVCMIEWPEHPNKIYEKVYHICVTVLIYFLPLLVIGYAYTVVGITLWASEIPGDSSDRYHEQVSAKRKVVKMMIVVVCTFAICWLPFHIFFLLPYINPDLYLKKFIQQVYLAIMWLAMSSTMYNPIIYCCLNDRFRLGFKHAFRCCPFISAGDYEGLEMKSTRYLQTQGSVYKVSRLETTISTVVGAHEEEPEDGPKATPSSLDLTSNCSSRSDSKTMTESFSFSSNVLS

`COc1ccc(C2C3CCC(=O)N3CCN2C(=O)N(C)[C@H](C)c2cc(C(F)(F)F)cc(C(F)(F)F)c2)c(C)c1` (single isomer, unassigned) [Compound 18]: the IC50 in series [1] amounted to 1150 pM. The “Human in vitro Clint” value in series [2] was more than 200 mL/min/g.

Take `COc1ccc(C2C3CCC(=O)N3CCN2C(=O)N(C)[C@H](C)c2cc(C(F)(F)F)cc(C(F)(F)F)c2)c(C)c1` (single isomer, unassigned) [Compound 19]: the IC50 in series [1] worked out at 38800 pM. Besides, the “Human in vitro Clint” value in series [2] was more than 200 mL/min/g.

As for `CCc1ccccc1[C@H]1[C@@H]2CCC(=O)N2CCN1C(=O)N(C)[C@H](C)c1cc(C(F)(F)F)cc(C(F)(F)F)c1` (single isomer, unassigned) [Compound 69], the IC50 in series [1] is 11000 pM. In series [2], the “Human in vitro Clint” value was more than 200 mL/min/g.

For the molecule `CCc1cc([C@@H](C)N(C)C(=O)N2CCN3C(=O)CC[C@H]3[C@@H]2c2ccccc2CC)cc(C(F)(F)F)c1` (single isomer, unassigned) [Compound 70], in series [1], the IC50 was 940 pM. Moreover, in series [2], the “Human in vitro Clint” value is more than 200 mL/min/g.

On to `CCc1cc([C@@H](C)N(C)C(=O)N2CCN3C(=O)CC[C@H]3[C@@H]2c2ccccc2CC)cc(C(F)(F)F)c1` (single isomer, unassigned) [Compound 71], for which the IC50 in series [1] turned out to be 49000 pM. Besides, the “Human in vitro Clint” value in series [2] was more than 200 mL/min/g.

For the molecule `CCc1cc([C@@H](C)N(C)C(=O)N2CCN3C(=O)C(CCO)(CCO)CC3C2c2ccc(OC)cc2C)cc(C(F)(F)F)c1` (some centres unmarked) [Compound 16], the IC50 in series [1] came out at 243 pM. Also, the “Human in vitro Clint” value in series [2] is more than 200 mL/min/g.

Consider `COc1ccc([C@H]2[C@@H]3CC(CCO)(CCO)C(=O)N3CCN2C(=O)N(C)[C@H](C)c2cc(C)cc(C(F)(F)F)c2)c(C)c1` [Compound 17, (1S,8aS)-7,7-bis(2-hydroxyethyl)-1-(4-methoxy-2-methylphenyl)-N-methyl-N—((R)-1-(3-methyl-5-(trifluoromethyl)phenyl)ethyl)-6-oxohexahydropyrrolo[1,2-a]pyrazine-2(1H)-carboxamide], for which, in series [1], the IC50 came to 799 pM. The “Human in vitro Clint” value in series [2] is more than 200 mL/min/g.

For the molecule `Cc1cc(F)ccc1[C@H]1[C@@H]2CCC(=O)N2CCN1C(=O)N(C)[C@H](C)c1cc(C(F)(F)F)cc(C(F)(F)F)c1` [Compound 20, (1S,8aS)—N—((R)-1-(3,5-bis(trifluoromethyl)phenyl)ethyl)-1-(4-fluoro-2-methylphenyl)-N-methyl-6-oxohexahydropyrrolo[1,2-a]pyrazine-2(1H)-carboxamide], the IC50 in series [1] came out at 137 pM. For the same molecule, the “Human in vitro Clint” value in series [2] stood at 40 mL/min/g.

With `Cc1cc([C@@H](C)N(C)C(=O)N2CCN3C(=O)CC[C@H]3[C@@H]2c2ccc(F)cc2C)cc(C(F)(F)F)c1` [Compound 21, (1S,8aS)-1-(4-fluoro-2-methylphenyl)-N-methyl-N—((R)-1-(3-methyl-5-(trifluoromethyl)phenyl)ethyl)-6-oxohexahydropyrrolo[1,2-a]pyrazine-2(1H)-carboxamide], the IC50 in series [1] turned out to be 83 pM. Moreover, the “Human in vitro Clint” value in series [2] was found to be 36 mL/min/g.

As for `Cc1cc(F)ccc1[C@H]1[C@@H]2CCC(=O)N2CCN1C(=O)N(C)[C@H](C)c1cc(C(C)C)cc(C(F)(F)F)c1` [Compound 22, (1S,8aS)-1-(4-fluoro-2-methylphenyl)-N-(1-(3-isopropyl-5-(trifluoromethyl)phenyl)ethyl)-N-methyl-6-oxohexahydropyrrolo[1,2-a]pyrazine-2(1H)-carboxamide], the IC50 in series [1] stood at 197 pM. Further, the “Human in vitro Clint” value in series [2] is more than 200 mL/min/g.

On to `CCc1cc([C@@H](C)N(C)C(=O)N2CCN3C(=O)CC[C@H]3[C@@H]2c2ccc(F)cc2C)cc(C(F)(F)F)c1` [Compound 23, (1S,8aS)—N—((R)-1-(3-ethyl-5-(trifluoromethyl)phenyl)ethyl)-1-(4-fluoro-2-methylphenyl)-N-methyl-6-oxohexahydropyrrolo[1,2-a]pyrazine-2(1H)-carboxamide], for which the IC50 in series [1] amounted to 37 pM. In addition, the “Human in vitro Clint” value in series [2] is 78 mL/min/g.

Regarding `CCc1cc([C@@H](C)N(C)C(=O)N2CCN3C(=O)C(CCO)(CCO)C[C@H]3[C@@H]2c2ccc(F)cc2C)cc(C(F)(F)F)c1` [Compound 24, (1S,8aS)—N—((R)-1-(3-ethyl-5-(trifluoromethyl)phenyl)ethyl)-1-(4-fluoro-2-methylphenyl)-7,7-bis(2-hydroxyethyl)-N-methyl-6-oxohexahydropyrrolo[1,2-a]pyrazine-2(1H)-carboxamide], the IC50 in series [1] was 80 pM. Besides, the “Human in vitro Clint” value in series [2] is more than 200 mL/min/g.

As for `Cc1cc(F)ccc1[C@H]1[C@@H]2CC(CCO)(CCO)C(=O)N2CCN1C(=O)N(C)[C@H](C)c1cc(C(C)C)cc(C(F)(F)F)c1` [Compound 25, (1S,8aS)-1-(4-fluoro-2-methylphenyl)-7,7-bis(2-hydroxyethyl)-N—((R)-1-(3-isopropyl-5-(trifluoromethyl)phenyl)ethyl)-N-methyl-6-oxohexahydropyrrolo[1,2-a]pyrazine-2(1H)-carboxamide], in series [1], the IC50 turned out to be 80 pM. In addition, the “Human in vitro Clint” value in series [2] turned out to be 128 mL/min/g.

For `Cc1cc(OCc2ccccc2)ccc1[C@H]1[C@@H]2CCC(=O)N2CCN1C(=O)N(C)[C@H](C)c1cc(C(F)(F)F)cc(C(F)(F)F)c1` [Compound 26, (1S,8aS)-1-(4-(benzyloxy)-2-methylphenyl)-N—((R)-1-(3,5-bis(trifluoromethyl)phenyl)ethyl)-N-methyl-6-oxohexahydropyrrolo[1,2-a]pyrazine-2(1H)-carboxamide], the IC50 in series [1] worked out at 7360 pM. For the same molecule, in series [2], the “Human in vitro Clint” value was more than 200 mL/min/g.

Regarding `Cc1cc(O)ccc1[C@H]1[C@@H]2CCC(=O)N2CCN1C(=O)N(C)[C@H](C)c1cc(C(F)(F)F)cc(C(F)(F)F)c1` [Compound 27, (1S,8aS)—N—((R)-1-(3,5-bis(trifluoromethyl)phenyl)ethyl)-1-(4-hydroxy-2-methylphenyl)-N-methyl-6-oxohexahydropyrrolo[1,2-a]pyrazine-2(1H)-carboxamide], the IC50 in series [1] came to 64 pM. Moreover, in series [2], the “Human in vitro Clint” value is more than 200 mL/min/g.

With `CCc1cc([C@@H](C)N(C)C(=O)N2CCN3C(=O)CC[C@H]3[C@@H]2c2ccc(O)cc2C)cc(C(F)(F)F)c1` [Compound 28, (1S,8aS)—N—((R)-1-(3-ethyl-5-(trifluoromethyl)phenyl)ethyl)-1-(4-hydroxy-2-methylphenyl)-N-methyl-6-oxohexahydropyrrolo[1,2-a]pyrazine-2(1H)-carboxamide], the IC50 in series [1] came to 110 pM. In addition, in series [2], the “Human in vitro Clint” value was more than 200 mL/min/g.
